# According to ChEMBL document CHEMBL3808294, “Design, synthesis and anti-HIV activity of novel quinoxaline derivatives” (Eur J Med Chem, 2016):
# Experiments:
# [1] = test system: Human immunodeficiency virus 1; assay: Antiviral activity against HIV1 3B infected in human MT4 cells assessed as protection against virus-induced cytopathogenic effect after 5 days by MTT assay; type: functional, organism-based; details: for IC50: Human immunodeficiency virus 1, 3B, MT4, 120 h
# Vero = assay: Cytotoxicity against African green monkey Vero cells assessed as cell growth inhibition after 24 hrs by MTT assay; type: cell-based; details: Chlorocebus sabaeus
# [2] = Cytotoxicity against human MT4 cells […] assessed as cell growth inhibition after 5 days by MTT assay; type: cell-based
Structure (SMILES),%max [1],IC50 [1],IC50 (Vero),CC50 at 120 h [2]
Cc1ccc(-c2nc3cc(F)c(Cl)cc3nc2-c2ccc(C)cc2)cc1,4%,> 27.8 µg/mL,> 100 µg/mL,27.8 µg/mL
Nc1nc2cc(F)c(Cl)cc2nc1N,9%,> 38.4 µg/mL,> 100 µg/mL,38.5 µg/mL
Fc1cc2nccnc2cc1Cl,3%,> 91.1 µg/mL,13.7 µg/mL,91.2 µg/mL
Cc1nc2cc(F)c(Cl)cc2nc1C,5%,> 49.7 µg/mL,> 100 µg/mL,49.7 µg/mL
Fc1cc2nc(-c3ccccc3)c(-c3ccccc3)nc2cc1Cl,3%,> 11.8 µg/mL,> 100 µg/mL,11.8 µg/mL
Fc1ccc(-c2nc3cc(F)c(Cl)cc3nc2-c2ccc(F)cc2)cc1,3%,> 15.4 µg/mL,> 100 µg/mL,15.4 µg/mL
COc1ccc(-c2nc3cc(F)c(Cl)cc3nc2-c2ccc(OC)cc2)cc1,1%,> 30.5 µg/mL,> 100 µg/mL,30.6 µg/mL
O=c1[nH]cnc2c1ncn2[C@H]1CC[C@@H](CO)O1 [DIDANOSINE],–,17.9 µg/mL,–,–
Nc1ccn([C@@H]2CS[C@H](CO)O2)c(=O)n1 [LAMIVUDINE],–,0.58 µg/mL,–,20 µg/mL
Cc1ccnc2c1NC(=O)c1cccnc1N2C1CC1 [NEVIRAPINE],–,0.075 µg/mL,> 100 µg/mL,–
CC(=O)O[C@H]1C(=O)[C@@]2(C)[C@H]([C@H](OC(=O)c3ccccc3)[C@]3(O)C[C@H](OC(=O)[C@H](O)[C@@H](NC(=O)c4ccccc4)c4ccccc4)C(C)=C1C3(C)C)[C@]1(OC(C)=O)CO[C@@H]1C[C@@H]2O [PACLITAXEL],–,–,> 100 µg/mL,–
Cc1cn([C@H]2C[C@H](N=[N+]=[N-])[C@@H](CO)O2)c(=O)[nH]c1=O [ZIDOVUDINE],–,0.002 µg/mL,–,2 µg/mL
